In patent US20220009914A1, “Analogs of Nitrofuran Antibiotics to Combat Resistance” (The Trustees of Indiana University, priority 2020, published 2022):
Read-outs that look alike come from different tables or passages of the source.

Legend:
native rhodanese = molecular target: T1, native rhodanese (Bos taurus, UniProt P00586); assay: native rhodanese enzymatic activity counter-screen; format: biochemical
T1 sequence (P00586 1-297): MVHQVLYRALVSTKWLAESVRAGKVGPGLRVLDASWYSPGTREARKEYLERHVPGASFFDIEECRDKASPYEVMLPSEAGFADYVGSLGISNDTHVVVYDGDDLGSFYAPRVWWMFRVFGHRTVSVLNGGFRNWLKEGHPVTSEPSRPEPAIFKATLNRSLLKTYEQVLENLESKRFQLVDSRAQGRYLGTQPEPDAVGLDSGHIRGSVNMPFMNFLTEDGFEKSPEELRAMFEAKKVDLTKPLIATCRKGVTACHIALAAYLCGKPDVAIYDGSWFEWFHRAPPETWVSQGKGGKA
Description: Counter-screening compounds for inhibition of native rhodanese enzymatic activity. Reagent Preparations & Assay Protocol: Reagents were identical to those used in the GroEL/ES-dRho refolding assay described above; however, the assay protocol differed in the sequence of compound addition to the wells. Compounds were pin-transferred after 50 minute incubation for the refolding cycle, but prior to the addition of the thiocyanate enzymatic assay stock. Thus, the refolding reactions were allowed to proceed for 50 min at 37° C. in the absence of test compounds, but the enzymatic activity of the refolded rhodanese reporter enzyme was monitored in the presence of test compounds (inhibitor concentration range during the enzymatic reporter reaction is 100 μM to 46 nM—3-fold dilutions). IC50 values for the rhodanese reporter enzyme were determined as described above. Results presented represent the averages of IC50 values obtained from at least four replicates.
All compounds were counter-screened for inhibiting the enzymatic activity of the native Rho reporter enzyme as per our previously reported procedure. Results presented represent the averages of IC50 values obtained from at least four replicates.

native MDH = molecular target: T2, native MDH (Sus scrofa, UniProt P00346); assay: native MDH enzymatic activity counter-screen; format: biochemical, pig
T2 sequence (P00346 25-338): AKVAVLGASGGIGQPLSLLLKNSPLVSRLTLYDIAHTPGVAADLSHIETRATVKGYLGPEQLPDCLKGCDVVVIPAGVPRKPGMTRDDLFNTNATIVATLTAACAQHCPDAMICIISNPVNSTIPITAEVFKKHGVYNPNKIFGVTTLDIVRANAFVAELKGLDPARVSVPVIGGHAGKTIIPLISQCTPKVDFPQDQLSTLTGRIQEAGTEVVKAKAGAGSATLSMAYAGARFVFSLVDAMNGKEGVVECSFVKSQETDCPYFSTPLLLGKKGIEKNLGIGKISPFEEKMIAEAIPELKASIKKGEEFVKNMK
Description: Reagent Preparations & Assay Protocol: This assay was performed as described above for the GroEL/ES-dMDH refolding assay; however, the assay protocol differed in the sequence of compound addition to the assay plates. The refolding reactions were allowed to proceed for 45 min at 37° C. in the absence of test compounds (complete refolding of MDH occurs), then quenched with the EDTA stock. Compounds were then pin-transferred into the plates after the EDTA quenching step; thus, compound effects are only possible by inhibiting the fully-refolded MDH reporter substrate. […] A340 nm measurements were recorded at 0.5 minutes (start point) and at successive time points until the amount of NADH consumed reached ˜90% (end point, generally between 20-35 minutes). Compounds were tested in 8-point, 3-fold dilution series (62.5 μM to 29 nM during the reporter reaction) in clear, flat-bottom 384-well microtiter plates. IC50 values for the MDH reporter enzyme were determined as described above. Results presented represent the averages of IC50 values obtained from at least five replicates.
Evaluating analogs for inhibiting GroEL/ES-mediated substrate refolding functions. […] We first evaluated all test compounds in our standard GroEL/ES-mediated refolding assays that employ either malate dehydrogenase (MDH) or rhodanese (Rho) as the denatured substrate reporter enzymes. When denatured, these enzymes are efficiently folded by GroEL/ES in the absence of inhibitors, and thus act as reporters to determine the degree of inhibition against the bacterial chaperonin system. Inhibition was examined in the presence of these two orthogonal substrates in order to support that GroEL/ES inhibitors were on-target. To further support on-target effects against GroEL/ES, we counter-screened for inhibition of the native MDH and Rho enzymatic reporter reactions, where test compounds were added after the denatured MDH and Rho substrate enzymes were completely refolded by GroEL/ES.

[1] = compounds added after refolding, read-out: Native Rho Activity IC50
[2] = without NfsB nitroreductase, compounds added after refolding, read-out: Native MDH Activity IC50

COc1ccc(C(=O)N/N=C/c2ccc(O)c3ncccc23)cc1 [Compound 1, N′-((8-hydroxyquinolin-5-yl)methylene)-4-methoxybenzohydrazide]
IC50 (native rhodanese; [1]): 98 µM | IC50 (native MDH; [2]): > 63 µM

O=C(N/N=C/c1ccc(O)c2ncccc12)c1ccccc1Oc1ccccc1 [Compound 10, N′-((8-hydroxyquinolin-5-yl)methylene)-2-phenoxybenzohydrazide]
IC50 (native rhodanese; [1]): 89 µM | IC50 (native MDH; [2]): > 63 µM

COc1ccc(C(=O)N/N=C/c2cccc3ncccc23)cc1 [Compound 31, 4-methoxy-N′-(quinolin-5-ylmethylene)benzohydrazide]
IC50 (native rhodanese; [1]): > 100 µM | IC50 (native MDH; [2]): > 63 µM

O=C(N/N=C/c1ccc([N+](=O)[O-])o1)c1ccc(NS(=O)(=O)c2ccc(Br)cc2)cc1 [Compound 27, 4-bromo-N-(4-(2-((5-nitrofuran-2-yl)methylene)hydrazine-1-carbonyl)phenyl)benzenesulfonamide]
IC50 (native rhodanese): 44 µM | IC50 (native MDH): > 63 µM

O=C(N/N=C/c1ccc(O)cc1)c1ccccc1 [Compound 36, N′-(4-hydroxybenzylidene)benzohydrazide]
IC50 (native rhodanese; [1]): > 100 µM | IC50 (native MDH; [2]): > 63 µM

O=C(N/N=C/c1ccc(O)c2ncccc12)c1ccccc1 [Compound 5, N′-((8-hydroxyquinolin-5-yl)methylene)benzohydrazide]
IC50 (native rhodanese; [1]): 95 µM | IC50 (native MDH; [2]): > 63 µM

O=C(N/N=C/c1ccc([N+](=O)[O-])o1)c1ccc(O)cc1 [Nifuroxazide, reference compound]
IC50 (native rhodanese): 69 µM | IC50 (native MDH): > 63 µM

O=C(N/N=C/c1ccc(O)c2ncccc12)c1ccc(NS(=O)(=O)c2ccc(Br)cc2)cc1 [Compound 14, 4-bromo-N-(4-(2-((8-hydroxyquinolin-5-yl)methylene)hydrazine-1-carbonyl)phenyl)benzenesulfonamide]
IC50 (native rhodanese; [1]): > 100 µM | IC50 (native MDH; [2]): > 63 µM

O=C(N/N=C/c1ccc(O)c2ncccc12)c1cccs1 [Compound 3, N′-((8-hydroxyquinolin-5-yl)methylene)thiophene-2-carbohydrazide]
IC50 (native rhodanese; [1]): 87 µM | IC50 (native MDH; [2]): > 63 µM

COc1ccc(C(=O)N/N=C/c2ccc(O)c3ccccc23)cc1 [Compound 29, N′-((4-hydroxynaphthalen-1-yl)methylene)-4-methoxybenzohydrazide]
IC50 (native rhodanese; [1]): 66 µM | IC50 (native MDH; [2]): > 63 µM

O=C(N/N=C/c1ccc([N+](=O)[O-])o1)c1cccc(Oc2ccccc2)c1 [Compound 24, N′-((5-nitrofuran-2-yl)methylene)-3-phenoxybenzohydrazide]
IC50 (native rhodanese; [1]): 65 µM | IC50 (native MDH; [2]): > 63 µM
